# Source: ChEMBL document CHEMBL5137015, “Design, synthesis, and evaluation of a novel series of mono-indolylbenzoquinones derivatives for the potential treatment of breast cancer” (Eur J Med Chem, 2022)
# Activity calls are given as the source filed them. No cut-off for these calls is given here.
# What was measured:
# HeLa = assay: Antiproliferative activity against human HeLa cells assessed as inhibition of cell growth by MTT assay; format: functional, cell-based
# MDA-MB-231 [1] = assay: Induction of apoptosis in human MDA-MB-231 cells assessed as late apoptotic cells by measuring green fluorescence at 0.01 to 1 uM by Annexin V-FITC staining based fluorescence microscopic analysis; format: functional, cell-based; conditions: dose 0.01-1 µM
# MDA-MB-231 [2] = assay: Induction of apoptosis in human MDA-MB-231 cells assessed as increase in catalase level at 100 nM incubated for 48 hrs; format: functional, cell-based
# MDA-MB-231 [3] = assay: Induction of apoptosis in human MDA-MB-231 cells assessed as increase in HTRA2/omi level at 100 nM incubated for 48 hrs; format: functional, cell-based
# MDA-MB-231 [4] = assay: Induction of apoptosis in human MDA-MB-231 cells assessed as increase in Bax protein expression at 1 uM incubated for 24 hrs by Western blot analysis; format: functional, cell-based
# MDA-MB-231 [5] = assay: Induction of apoptosis in human MDA-MB-231 cells assessed as increase in caspase 3 expression at 1 uM incubated for 24 hrs by Western blot analysis; format: functional, cell-based
# MDA-MB-231 [6] = assay: Induction of apoptosis in human MDA-MB-231 cells assessed as increase in caspase 9 expression at 1 uM incubated for 24 hrs by Western blot analysis; format: functional, cell-based
# MDA-MB-231 [7] = assay: Induction of apoptosis in human MDA-MB-231 cells assessed as decrease in Bcl-2 expression at 0.5 to 3 times of IC50 concentration by Western blot analysis; format: functional, cell-based
# 4T1 [8] = assay: Antitumor activity against mouse 4T1 cells implanted in Balb/c mouse assessed as TUNEL positive cells at 50 mg/kg administered intratumorally every four days for 14 days in the presence of liquid cyanoacrylate by TUNEL staining analysis; format: functional; conditions: route it(Intratumoral), time 14 day
# [9] = Toxicity in Balb/c mouse implanted with mouse 4T1 cells assessed as effect on body weight at 50 mg/kg administered intratumorally every four days for 14 days; format: organism-based; conditions: in vivo, other, 336 h, route it(Intratumoral), time 14 day
# [10] = Toxicity in Balb/c mouse implanted with mouse 4T1 cells assessed as kidney lesions at 50 mg/kg, ip administered every two days for 14 days by H&E staining based histopathological analysis; format: organism-based; conditions: in vivo, 336 h, time 14 day
# [11] = Toxicity in Balb/c mouse implanted with mouse 4T1 cells assessed as liver lesions at 50 mg/kg, ip administered every two days for 14 days by H&E staining based histopathological analysis; format: organism-based; conditions: in vivo, 336 h, time 14 day
# [12] = Toxicity in Balb/c mouse implanted with mouse 4T1 cells assessed as lung lesions at 50 mg/kg, ip administered every two days for 14 days by H&E staining based histopathological analysis; format: organism-based; conditions: in vivo, 336 h, time 14 day
# 4T1 [13] = assay: Antitumor activity aginst mouse 4T1 cells implanted in Balb/c mouse assessed as nuclei shrinkage at 50 mg/kg administered intratumorally every four days for 14 days; format: functional, organism-based; conditions: route it(Intratumoral), time 14.0 day
# [14] = Toxicity in Balb/c mouse xenografted with mouse 4T1 cells assessed as kidney lesions at 200 mg/kg administered topically over the tumor surface every two days for 14 days in the presence of cyanoacrylate by H&E staining based histopathological analysis; format: organism-based; conditions: in vivo, topical_or_ocular, 336 h, route top, time 14 day
# [15] = Drug metabolism in Balb/c mouse liver implanted with mouse 4T1 cells assessed as 2-methyl hydroxylation of parent compound causing metabolite formation by LC-MS analysis; format: ADME, tissue-based
# [16] = Drug metabolism in Balb/c mouse spleen implanted with mouse 4T1 cells assessed as 2-methyl hydroxylation of parent compound causing metabolite formation by LC-MS analysis; format: ADME, tissue-based
smiles,measurement,setting,value
Cc1[nH]c2ccccc2c1C1=C(Cl)C(=O)C(Cl)=C(N2CCOCC2)C1=O,IC50,HeLa,320 nM
same,Activity,MDA-MB-231 [1],Active
same,Activity,MDA-MB-231 [2],Active
same,Activity,MDA-MB-231 [3],Active
same,Activity,MDA-MB-231 [4],Active
same,Activity,MDA-MB-231 [5],Active
same,Activity,MDA-MB-231 [6],Active
same,Activity,MDA-MB-231 [7],Active
same,Activity,4T1 [8],49.52%
same,Activity,[9],Non-Toxic
same,Activity,[10],Non-Toxic
same,Activity,[11],Non-Toxic
same,Activity,[12],Non-Toxic
same,Activity,4T1 [13],Active
same,Activity,[14],Non-Toxic
same,Drug metabolism,[15],Metabolite_Detected
same,Drug metabolism,[16],Metabolite_Detected
